Source: ChEMBL document CHEMBL5380844, “Discovery of a Novel, Potent, Orally Active, and Safe Inhibitor Targeting Human Mitochondrial RNA Polymerase” (J Med Chem, 2023)
The source made the active and inactive calls. No cut-off for these calls is given here.

How the values were obtained:
A2780 [1] = assay: Effect on SDHB level in human A2780 cells at upto 500 nM by Western blot analysis; format: functional, cell-based
A2780 [2] = assay: Effect on ATP5A level in human A2780 cells at upto 500 nM by Western blot analysis; format: functional, cell-based
[3] = Toxicity in Balb/c mouse assessed as effect on kidney at 100 mg/kg by H and E staining based analysis; format: organism-based; conditions: in vivo
A2780 [4] = assay: Inhibition of colony formation in human A2780 cells assessed as decrease in colony quantity at 10 nM incubated for 14 days by crystal violet staining based analysis; format: functional, cell-based; conditions: time 14.0 day
[5] = Toxicity in Balb/c mouse assessed as effect on heart at 100 mg/kg by H and E staining based analysis; format: organism-based; conditions: in vivo
Cytochrome P450 2C19 = Cytochrome P450 2C19 (Homo sapiens, UniProt P33261); assay: Inhibition of CYP2C19 (unknown origin) using S-mephenytoin as substrate in presence of NADPH by LC/MS/MS analysis; format: ADME
A2780 [6] = assay: Antitumor activity against human A2780 cells xenografted in BALB/c nude mouse model assessed as reduction in mitochondrial DNA transcript level at 50 to 100 mg/kg, po administered daily; format: functional, organism-based; conditions: dose 50-100 mg/kg
A2780 [7] = assay: Antitumor activity against human A2780 cells xenografted in BALB/c nude mouse model assessed as reduction in NDUFB level at 100 mg/kg, po by immunoblotting analysis; format: functional, organism-based
A2780 [8] = assay: Antitumor activity against human A2780 cells xenografted in BALB/c nude mouse model assessed as effect on liver 100 mg/kg, po measured after 27 days; format: functional, organism-based; conditions: time 27.0 day
MDA-MB-468 = assay: Antiproliferative activity against human MDA-MB-468 cells incubated for 168 hrs by SRB method; format: functional, cell-based; conditions: MDA-MB-468, 168 h
[9] = AUC (0 to t) in ICR mouse at 1 mg/kg, iv measured upto 24 hrs by LC-MS/MS analysis; format: ADME, organism-based; set-up: time < 24 hrs, dose 1 mg/kg, route iv; conditions: in vivo
[10] = AUC (0 to infinity) in ICR mouse at 1 mg/kg, iv measured upto 24 hrs by LC-MS/MS analysis; format: ADME, organism-based; set-up: time < 24 hrs, dose 1 mg/kg, route iv; conditions: in vivo
[11] = Inhibition of ND1 transcript level in human A2780 cells at 500 nM measured after 12 hrs by RT-qPCR analysis relative to control; format: functional

Cytochrome P450 2C19, sequence (P33261 whole entry): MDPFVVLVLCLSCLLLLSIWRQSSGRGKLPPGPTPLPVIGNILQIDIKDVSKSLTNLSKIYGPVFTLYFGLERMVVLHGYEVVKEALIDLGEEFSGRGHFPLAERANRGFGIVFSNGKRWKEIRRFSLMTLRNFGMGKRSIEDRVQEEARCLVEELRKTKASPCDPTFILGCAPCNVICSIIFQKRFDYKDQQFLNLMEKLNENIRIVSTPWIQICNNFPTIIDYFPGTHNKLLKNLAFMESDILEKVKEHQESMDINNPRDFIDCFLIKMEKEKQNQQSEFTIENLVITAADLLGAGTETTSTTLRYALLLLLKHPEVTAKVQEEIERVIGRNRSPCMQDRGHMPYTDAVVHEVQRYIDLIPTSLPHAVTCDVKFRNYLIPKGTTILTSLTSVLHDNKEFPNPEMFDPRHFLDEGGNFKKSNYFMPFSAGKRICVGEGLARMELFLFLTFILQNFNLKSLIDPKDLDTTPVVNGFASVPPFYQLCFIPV

**Q.** Which results are given for `Cc1ccc(-c2cc(=O)oc3cc(O[C@H](C)C(=O)N4CC5CCC(C4)N5C)ccc23)c(C)c1`?
**A.** Activity (A2780 [1]): inactive; Activity (A2780 [2]): inactive; Activity [3]: Non-Toxic; inhibition (A2780 [4]): Active; Activity [5]: Non-Toxic; IC50 (Cytochrome P450 2C19): 31.5 µM; Activity (A2780 [6]): Active; Activity (A2780 [7]): Active; Activity (A2780 [8]): inactive; IC50 (MDA-MB-468): 0.132 µM; AUC(0-t) at 24 h [9]: 0.424 µg·h/mL; AUC(0-inf) [10]: 0.439 µg·h/mL; inhibition at 0.5 µM [11]: 15%
